Assay results published in the NIST ThermoML archive (doi:10.1007/s10765-013-1469-0).

Assays:
[1] = 101 kPa, Liquid; for viscosity: Concentric cylinders viscometry; for mass density: Vibrating tube method
[2] = refractive index (Na D-line) (dimensionless); details: 101.33 kPa, Liquid, Standard Abbe refractometry
[3] = xn = mol fraction of the nth substance listed; details: 101 kPa, Liquid, x1 = 1; for viscosity: Concentric cylinders viscometry; for mass density: Vibrating tube method
[4] = refractive index (Na D-line) (dimensionless); xn = mol fraction of the nth substance listed; details: 101 kPa, Liquid, Standard Abbe refractometry, x1 = 1

COCCOCCOCCOCCOC [2,5,8,11,14-pentaoxapentadecane]
Details	mass density, [1] [kg/m3]	refractive index, [2]	viscosity, [1] [mPa·s]
288.15 K	1015.63	1.4345	4.341
293.15 K	1011	1.43238	3.834
298.15 K	1006.36	1.43027	3.38
303.15 K	1001.73	1.42815	3.004
308.15 K	997.104	1.42603	2.691
313.15 K	992.481	1.42394	2.426
318.15 K	987.859	1.42183	2.199
323.15 K	983.234	1.41973	2.006
328.15 K	978.613	1.41765	1.838
333.15 K	973.989	1.41553	1.691

CCCCO [butan-1-ol]
Details	mass density, [1] [kg/m3]	refractive index, [2]	viscosity, [1] [mPa·s]
288.15 K	813.407	1.40131	3.356
293.15 K	809.621	1.39932	2.965
298.15 K	805.804	1.39729	2.593
303.15 K	801.964	1.39529	2.277
308.15 K	798.091	1.39317	2.008
313.15 K	794.181	1.39104	1.78
318.15 K	790.229	1.38893	1.583
323.15 K	786.228	1.38683	1.412
328.15 K	782.172	1.38474	1.264
333.15 K	778.056	1.38237	1.132

CCCCO [butan-1-ol] + COCCOCCOCCOCCOC
Details	mass density, [3] [kg/m3]	refractive index, [4]	viscosity, [3] [mPa·s]
288.15 K	813.407	1.40131	3.356
293.15 K	809.621	1.39932	2.965
298.15 K	805.804	1.39729	2.593
303.15 K	801.964	1.39529	2.277
308.15 K	798.091	1.39317	2.008
313.15 K	794.181	1.39104	1.78
318.15 K	790.229	1.38893	1.583
323.15 K	786.228	1.38683	1.412
328.15 K	782.172	1.38474	1.264
333.15 K	778.056	1.38237	1.132
